Results on 16 molecules are retold here after article PMC6522510 (Nature Communications, 2019).

SMILES strings stand for the structures. Where a name gives a salt, the structure may show the parent alone. Read-outs that look alike come from different tables or passages of the source.

Test systems include U937; MV4-11; CHRF288-11; CMK; M07e; MOLM-13; ML-2; CMS.
Set-up in all cases: species or system AML cell lines (8); Primary HTS, single concentration about 10 uM, Cell Titer Glo viability; log10 luminescence, per cent inhibition relative to cycloheximide control
Common to all, as to details: 72 h, relative to cycloheximide control, log10 luminescence, inhibitor
For orientation: ATP-based viability assays read luminescence as a measure of living cells.

For the molecule `CN[C@@H]1[C@H](O[C@H]2[C@H](O[C@H]3[C@H](O)[C@@H](O)[C@H](N=C(N)N)[C@@H](O)[C@@H]3N=C(N)N)O[C@@H](C)[C@]2(O)C=O)O[C@@H](CO)[C@H](O)[C@H]1O` [SJ000285297-4, STREPTOMYCIN SULFATE], in the assay with U937 (U937 %inh, 10 µM), the U937 %inh is -1.404%. For the same molecule, in the assay with MV4-11 (MV4-11 %inh, 10 µM), the MV4-11 %inh is -1.642%. Further, the CHRF288-11 %inh with CHRF288-11 (CHRF288-11 %inh, 10 µM) turned out to be 6.76%. Further, in the assay with CMK (CMK %inh, 10 µM), the CMK %inh was 3.295%. Further, the M07e %inh in the assay on M07e (M07e %inh, 10 µM) was -4.718%. Also, the MOLM-13 %inh with MOLM-13 (MOLM-13 %inh, 10 µM) was determined as 1.953%. In the assay with ML-2 (ML-2 %inh, 10 µM), the ML-2 %inh is on record as -3.476%. Moreover, the CMS %inh in the assay with CMS (CMS %inh, 10 µM) is given as -1.268%.
On to `CCOC(=O)C1=C(C)NC(C)=C(C(=O)OC)C1c1cccc(Cl)c1Cl` (single isomer, unassigned) [SJ000287293-7, FELODIPINE], for which, in the assay with U937 (U937 %inh, 10 µM), the U937 %inh is listed as 12.4%. In the assay on MV4-11 (MV4-11 %inh, 10 µM), the MV4-11 %inh was 12.83%. Further, the CHRF288-11 %inh with CHRF288-11 (CHRF288-11 %inh, 10 µM) came to 33.72%. Besides, the CMK %inh in the assay with CMK (CMK %inh, 10 µM) was 36.03%. Moreover, the M07e %inh in the assay with M07e (M07e %inh, 10 µM) was 7.937%. In addition, the MOLM-13 %inh in the assay on MOLM-13 (MOLM-13 %inh, 10 µM) is 16.76%. Moreover, the ML-2 %inh with ML-2 (ML-2 %inh, 10 µM) amounted to 2.538%. For the same molecule, the CMS %inh in the assay on CMS (CMS %inh, 10 µM) is given as -2.469%.
As for `O=C1NC(=N[C@H](CO)c2ccccc2)S/C1=C\c1ccc2ncccc2c1` [SJ000581004-2], the U937 %inh in the assay on U937 is on record as 9.058%. The MV4-11 %inh with MV4-11 amounted to 3.175%. The CHRF288-11 %inh in the assay with CHRF288-11 is 1.03%. The CMK %inh in the assay with CMK turned out to be 28.24%. The M07e %inh in the assay with M07e amounted to 10.69%. In addition, in the assay with MOLM-13, the MOLM-13 %inh is recorded as 7.874%. Also, in the assay on ML-2, the ML-2 %inh is reported as 2.475%. For the same molecule, the CMS %inh in the assay on CMS is given as 2.583%.
With `CC(C)[N+](C)(CCC(C(N)=O)(c1ccccc1)c1ccccc1)C(C)C` [SJ000285636-4, ISOPROPAMIDE IODIDE], in the assay on U937, the U937 %inh is given as -1.123%. Also, the MV4-11 %inh with MV4-11 is recorded as -0.6779%. In addition, the CHRF288-11 %inh in the assay with CHRF288-11 was found to be 8.188%. Also, the CMK %inh in the assay with CMK was -6.961%. Moreover, the M07e %inh in the assay on M07e worked out at 2.458%. In addition, in the assay with MOLM-13, the MOLM-13 %inh is given as 19.61%. Further, in the assay with ML-2, the ML-2 %inh is on record as -0.5962%. For the same molecule, the CMS %inh with CMS is listed as -2.262%.
`Cn1cc(C2=C(n3ccc4ccccc43)C(=O)NC2=O)c2ccccc21` [SJ000581055-1]: the U937 %inh with U937 is -2.193%. In addition, in the assay with MV4-11, the MV4-11 %inh is on record as -2.255%. Further, the CHRF288-11 %inh in the assay with CHRF288-11 stood at 24.92%. Besides, the CMK %inh with CMK is on record as -4.048%. In addition, the M07e %inh in the assay with M07e is on record as -0.4303%. In addition, the MOLM-13 %inh in the assay with MOLM-13 was -2.803%. Moreover, in the assay on ML-2, the ML-2 %inh is -0.8882%. For the same molecule, the CMS %inh in the assay with CMS is 4.23%.
Take `CO[C@H]1/C=C/O[C@@]2(C)Oc3c(C)c(O)c4c(O)c(c(/C=N/N5CCN(C)CC5)c(O)c4c3C2=O)NC(=O)/C(C)=C\C=C\[C@H](C)[C@H](O)[C@@H](C)[C@@H](O)[C@@H](C)[C@H](OC(C)=O)[C@@H]1C` [SJ000000850-6, RIFAMPIN | RIFAMPICIN]: the U937 %inh in the assay with U937 (U937 %inh, 10 µM) is on record as 3.577%. Moreover, the MV4-11 %inh with MV4-11 (MV4-11 %inh, 10 µM) came to 5.189%. The CHRF288-11 %inh in the assay with CHRF288-11 (CHRF288-11 %inh, 10 µM) was found to be 0.456%. Besides, in the assay with CMK (CMK %inh, 10 µM), the CMK %inh is -0.3986%. Also, the M07e %inh in the assay with M07e (M07e %inh, 10 µM) amounted to 0.5367%. In addition, in the assay on MOLM-13 (MOLM-13 %inh, 10 µM), the MOLM-13 %inh is given as 5.052%. Also, the ML-2 %inh in the assay on ML-2 (ML-2 %inh, 10 µM) was 3.762%. For the same molecule, the CMS %inh in the assay with CMS (CMS %inh, 10 µM) came to 11.96%.
`CNc1ncc2cc(Oc3ccc(F)cc3F)c(=O)n(C)c2n1` [SJ000581177-1]: the U937 %inh in the assay with U937 is 2.229%. For the same molecule, the MV4-11 %inh in the assay on MV4-11 came out at 2.766%. In the assay with CHRF288-11, the CHRF288-11 %inh is -5.721%. The CMK %inh with CMK came to 4.145%. In addition, the M07e %inh with M07e is listed as -0.008012%. For the same molecule, the MOLM-13 %inh in the assay on MOLM-13 was 3.528%. In addition, the ML-2 %inh in the assay on ML-2 is 0.6187%. Further, the CMS %inh with CMS was -2.096%.
In the case of `Cn1cc(C2=C(c3ccc4ccccc4c3)C(=O)NC2=O)c2ccccc21` [SJ000581109-1], the U937 %inh in the assay with U937 is listed as 4.798%. For the same molecule, in the assay with MV4-11, the MV4-11 %inh is given as 1.463%. Besides, the CHRF288-11 %inh with CHRF288-11 was 15.54%. In addition, in the assay with CMK, the CMK %inh was found to be 22.8%. The M07e %inh in the assay on M07e came out at 12.46%. For the same molecule, in the assay on MOLM-13, the MOLM-13 %inh worked out at 1.67%. For the same molecule, the ML-2 %inh with ML-2 is recorded as 4.34%. In addition, the CMS %inh with CMS is given as 2.57%.
Take `O=C1[C@H](CC[C@H](O)c2ccc(F)cc2)[C@@H](c2ccc(O)cc2)N1c1ccc(F)cc1` [SJ000286078-3, EZETIMIBE]: the U937 %inh with U937 was 5.441%. For the same molecule, in the assay with MV4-11, the MV4-11 %inh worked out at 0.198%. The CHRF288-11 %inh in the assay on CHRF288-11 is 8.692%. The CMK %inh with CMK is on record as 3.95%. In addition, in the assay with M07e, the M07e %inh was determined as 4.29%. Also, in the assay with MOLM-13, the MOLM-13 %inh is 5.807%. For the same molecule, the ML-2 %inh with ML-2 is listed as 2.139%. The CMS %inh in the assay with CMS amounted to 1.706%.
`CS(=O)(=O)Nc1ccc(-c2cc(-c3ccccc3)cc(C(N)=O)c2N)cc1` [SJ000573108-1, R12070/86/1]: in the assay on U937, the U937 %inh was -2.496%. Also, in the assay on MV4-11, the MV4-11 %inh was 0.1875%. In the assay with CHRF288-11, the CHRF288-11 %inh is listed as 2.153%. Further, the CMK %inh with CMK was -4.619%. Besides, the M07e %inh with M07e amounted to 0.06792%. Besides, the MOLM-13 %inh with MOLM-13 is reported as -0.8297%. In addition, the ML-2 %inh with ML-2 is listed as -0.5203%. The CMS %inh in the assay on CMS is recorded as -2.317%.
Take `Nc1c(C(=O)c2cccc(CCC3(O)CCCC3)c2)cnn1-c1ccc(F)cc1` [SJ000580994-1]: the U937 %inh in the assay on U937 is listed as 3.468%. Besides, in the assay on MV4-11, the MV4-11 %inh is on record as 2.023%. For the same molecule, in the assay on CHRF288-11, the CHRF288-11 %inh amounted to 5.85%. Besides, in the assay with CMK, the CMK %inh is recorded as 2.532%. Besides, in the assay with M07e, the M07e %inh is 2.495%. Further, the MOLM-13 %inh in the assay with MOLM-13 is on record as 0.5318%. The ML-2 %inh in the assay on ML-2 was -0.2918%. In addition, the CMS %inh in the assay on CMS is 0.1004%.
`NC(=O)c1cccc(Nc2nccc(Nc3cccc4[nH]ncc34)n2)c1` [SJ000573030-1, JA205171-001A6]: in the assay with U937, the U937 %inh is listed as -0.8011%. Moreover, in the assay on MV4-11, the MV4-11 %inh was found to be 23.15%. Moreover, in the assay with CHRF288-11, the CHRF288-11 %inh is reported as 16.39%. For the same molecule, the CMK %inh with CMK was -1.424%. In addition, the M07e %inh in the assay with M07e was determined as 5.4%. Also, in the assay with MOLM-13, the MOLM-13 %inh is 22.42%. Further, the ML-2 %inh in the assay on ML-2 was found to be 2.579%. For the same molecule, the CMS %inh in the assay on CMS is given as 1.464%.
Consider `Cn1cc(C2=C(c3c4n(c5ccccc35)CCC(CN)CC4)C(=O)NC2=O)c2ccccc21` (centres unmarked) [SJ000581022-1], for which, in the assay on U937, the U937 %inh is 3.425%. Also, the MV4-11 %inh in the assay on MV4-11 was 5.378%. For the same molecule, the CHRF288-11 %inh in the assay on CHRF288-11 was 0.7803%. The CMK %inh in the assay with CMK stood at 2.783%. Further, in the assay with M07e, the M07e %inh is listed as 8.854%. Further, the MOLM-13 %inh with MOLM-13 came to 2.979%. Besides, the ML-2 %inh with ML-2 came to 3.751%. For the same molecule, the CMS %inh with CMS is reported as 0.653%.
`Nc1c(C(=O)c2ccc(C#CCN3CCOCC3)cc2)cnn1-c1ccc(F)cc1` [SJ000581175-1]: the U937 %inh with U937 is recorded as 8.015%. For the same molecule, in the assay on MV4-11, the MV4-11 %inh is on record as 6.7%. The CHRF288-11 %inh with CHRF288-11 is reported as -0.8034%. Further, the CMK %inh in the assay on CMK turned out to be 5.964%. Besides, the M07e %inh in the assay on M07e is -0.05766%. Also, the MOLM-13 %inh in the assay on MOLM-13 was determined as 6.812%. For the same molecule, the ML-2 %inh in the assay on ML-2 is recorded as -0.5007%. The CMS %inh in the assay with CMS is listed as 1.749%.
Turning to `Cc1cccc(C)c1NC(=O)C(C)N` (centres unmarked) [SJ000287515-4, TOCAINIDE HYDROCHLORIDE], the U937 %inh in the assay on U937 is -0.5289%. In addition, the MV4-11 %inh with MV4-11 is listed as -0.903%. In the assay on CHRF288-11, the CHRF288-11 %inh is -1.466%. Moreover, the CMK %inh with CMK is given as -3.02%. In addition, in the assay on M07e, the M07e %inh was found to be 1.522%. Moreover, the MOLM-13 %inh in the assay on MOLM-13 came out at 2.63%. Moreover, the ML-2 %inh in the assay on ML-2 amounted to 2.731%. Further, the CMS %inh in the assay with CMS is listed as -0.9728%.
As for `Cn1cc(C2=C(c3cn(C)c4ccc(OCc5ccccc5)cc34)C(=O)NC2=O)c2ccccc21` [SJ000581064-1], the U937 %inh in the assay with U937 is -0.03201%. The MV4-11 %inh with MV4-11 turned out to be 0.7902%. Moreover, the CHRF288-11 %inh with CHRF288-11 turned out to be 7.008%. Also, in the assay with CMK, the CMK %inh is -3.355%. In addition, the M07e %inh with M07e stood at 0.1859%. Besides, the MOLM-13 %inh in the assay on MOLM-13 was -0.8092%. Besides, the ML-2 %inh with ML-2 is given as -0.03114%. In addition, the CMS %inh in the assay on CMS was 2.588%.
